The target in one data set is BACE-1 (Homo sapiens, UniProt P56817). As to the kind of experiment: BACE-1 FRET inhibition assay. In kind it is biochemical.
For the next data set, the target named is Aβ1–42 (Homo sapiens, UniProt P05067). As to the kind of experiment: Inhibition of Aβ1–42 self-induced aggregation, Thioflavin-T fluorometric assay. In kind it is biochemical. To be noted: read-out: % inhibition of Aβ1–42 aggregation at 10 μM, 10 μM compound.
The target in the next data set is Human AChE (Homo sapiens, UniProt P22303). In words: AChE inhibition, Ellman assay. In kind it is biochemical.
In data set [1] the test system is scopolamine-induced memory impairment in mice. As to the kind of experiment: Morris water maze test, scopolamine-induced memory impairment. It is filed as in vivo, Swiss albino mice. To be noted: MWM, one animal from each group; for time taken by the animals to reach the platform, after the training (5th day): basal reading before any treatment; for time taken by the animals to reach the platform, after treatment with the test compound/donepezil (11th day): before scopolamine; for time taken by the animals to reach the platform, after treatment with the test compound/donepezil (11th day) / time taken by the animals to reach the platform, after treatment with scopolamine (14th day): compounds 10 mg/kg, donepezil 3 mg/kg; for time taken by the animals to reach the platform, after treatment with scopolamine (14th day): scopolamine 2 mg/kg i.p. days 12-14.

Another data set is described as follows: PAMPA-BBB permeability. To be noted: for Papp at 5 h, 200 μM: PAMPA, pH 7.4.
A further data set can be described thus: Plasma stability assay. In kind it is in vitro ADME.

Here are results for 18 compounds from article PMC10955571 (ACS Omega, 2024).

Structures are written as SMILES. Where a SMILES comes first, the peptide text is derived from it. The star is where a group is joined. Isobutyryl = CC(C)C(=O)*; Cbz = O=C(OCc1ccccc1)*; OAll = C=CCO*

Chain of Human AChE (P22303 32-614): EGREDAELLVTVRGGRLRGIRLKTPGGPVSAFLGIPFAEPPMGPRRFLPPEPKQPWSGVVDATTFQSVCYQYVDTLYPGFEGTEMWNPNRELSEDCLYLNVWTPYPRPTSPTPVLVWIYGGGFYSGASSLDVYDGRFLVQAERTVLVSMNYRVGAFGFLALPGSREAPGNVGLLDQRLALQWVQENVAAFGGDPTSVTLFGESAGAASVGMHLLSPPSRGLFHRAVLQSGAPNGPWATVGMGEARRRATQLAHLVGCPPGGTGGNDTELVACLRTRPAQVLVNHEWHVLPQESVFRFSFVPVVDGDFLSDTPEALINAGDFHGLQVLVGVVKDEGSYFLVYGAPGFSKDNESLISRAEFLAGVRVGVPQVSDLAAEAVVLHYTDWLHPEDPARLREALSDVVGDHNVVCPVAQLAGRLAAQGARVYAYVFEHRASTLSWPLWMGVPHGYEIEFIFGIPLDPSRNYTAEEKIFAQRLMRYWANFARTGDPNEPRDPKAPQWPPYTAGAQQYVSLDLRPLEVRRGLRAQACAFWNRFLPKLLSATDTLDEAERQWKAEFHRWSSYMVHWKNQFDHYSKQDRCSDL
Chain of BACE-1 (P56817 46-501): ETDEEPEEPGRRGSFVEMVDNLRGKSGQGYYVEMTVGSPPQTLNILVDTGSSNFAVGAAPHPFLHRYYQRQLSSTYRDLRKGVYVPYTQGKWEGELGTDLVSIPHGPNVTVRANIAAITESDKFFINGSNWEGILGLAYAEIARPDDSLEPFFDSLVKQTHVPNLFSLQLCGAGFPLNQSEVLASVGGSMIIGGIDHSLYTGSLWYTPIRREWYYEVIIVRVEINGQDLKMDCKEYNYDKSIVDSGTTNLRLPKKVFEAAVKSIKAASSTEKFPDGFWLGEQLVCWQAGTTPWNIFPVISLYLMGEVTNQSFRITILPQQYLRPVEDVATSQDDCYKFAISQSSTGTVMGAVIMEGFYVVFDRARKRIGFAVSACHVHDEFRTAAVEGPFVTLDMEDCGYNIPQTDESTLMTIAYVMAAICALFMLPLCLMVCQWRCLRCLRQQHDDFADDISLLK
Chain of Aβ1–42 (P05067 672-713): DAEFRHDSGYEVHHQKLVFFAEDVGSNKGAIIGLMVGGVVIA

Take `COC(=O)[C@H](C)NC(=O)[C@@H]1CCCN1C(=O)CNC(=O)C(C)C` [Compound 13, Isobut-Gly-Pro-Ala-OMe] (Isobutyryl-Gly-Pro-Ala-OMe): the IC50 against BACE-1 was 0.2 ± 0.03 µM; on Human AChE it was 7 ± 1 µM. In addition, the inhibition at 10 µM at Aβ1–42 is 36.3 ± 4.3%.

For the compound `CC(C)C(=O)NCC(=O)N1CCC[C@H]1C(=O)N[C@@H](C)C(=O)O` [Compound 14, Isobut-Gly-Pro-Ala-OH] (Isobutyryl-Gly-Pro-Ala-OH), the IC50 at BACE-1 was determined as 0.6 ± 0.05 µM; on Human AChE, 8 ± 1.2 µM.

Consider `C=CCOC(=O)[C@H](C)NC(=O)[C@@H]1CCCN1C(=O)CNC(=O)C(C)C` [Compound 15, Isobut-Gly-Pro-Ala-O-allyl] (Isobutyryl-Gly-Pro-Ala-OAll), for which, in data set [1], the “time taken by the animals to reach the platform, after the training (5th day)” value (“time taken by the animals … (5th day)” for short) is listed as 11 s; the “time taken by the animals to reach the platform, after treatment with the test compound/donepezil (11th day)” value came out at 11 s; the “time taken by the animals to reach the platform, after treatment with scopolamine (14th day)” value (shortened to “time taken by the animals … (14th day)”) worked out at 93 s. For the same compound, the Papp at 5 h, 200 μM in the data set “PAMPA-BBB permeability” was 1.8 ×10⁻⁶ cm/s. On BACE-1, this compound yielded an IC50 of 0.05 ± 0.001 µM. In addition, the inhibition at 10 µM at Aβ1–42 is over 50%. Besides, on Human AChE, inhibition was half-maximal at 0.05 ± 0.01 µM (IC50).

Regarding `CC(C)=CCOC(=O)[C@H](C)NC(=O)[C@@H]1CCCN1C(=O)CNC(=O)C(C)C` [Compound 16, Isobut-Gly-Pro-Ala-O-dimethylallyl], the IC50 is 0.2 ± 0.01 µM against BACE-1 and 1 ± 0.1 µM at Human AChE.

In “PAMPA-BBB permeability”, `CC(C)C(=O)NCC(=O)N1CCC[C@H]1C(=O)N[C@@H](C)C(=O)OC/C=C/c1ccccc1` [Compound 17, Isobut-Gly-Pro-Ala-O-Cinnamyl] came in with a Papp at 5 h, 200 μM of 3.64 ×10⁻⁶ cm/s. In addition, the IC50 against BACE-1 turned out to be 0.1 ± 0.01 µM; against Human AChE, 0.9 ± 0.1 µM.

Consider `CC(C)=CCC/C(C)=C/COC(=O)[C@H](C)NC(=O)[C@@H]1CCCN1C(=O)CNC(=O)C(C)C` [Compound 18, Isobut-Gly-Pro-Ala-O-Geranyl], for which, in data set [1], the “time taken by the animals … (5th day)” value came out at 5 s; the “time taken by the animals to reach the platform, after treatment with the test compound/donepezil (11th day)” value turned out to be 5 s; the “time taken by the animals … (14th day)” value came out at 71 s. The compound also gave a Papp at 5 h, 200 μM in the data set “PAMPA-BBB permeability” of 3.17 ×10⁻⁶ cm/s. The IC50 against BACE-1 is 20 ± 2 µM. Besides, the inhibition at 10 µM on Aβ1–42 was determined as 12.5 ± 2.1%. On Human AChE, this compound gave an IC50 of 7 ± 1.3 µM.

For the compound `COC(=O)[C@H](C)NC(=O)[C@@H]1CCCN1C(=O)CNC(=O)OCc1ccccc1` [Compound 21, Cbz-Gly-Pro-Ala-OMe] (Cbz-Gly-Pro-Ala-OMe), the 50% inhibitory concentration (IC50) at BACE-1 amounted to 30 ± 4.1 µM; against Human AChE, 1000 ± 9.5 µM. Besides, the “IC50 AChE” value against Human AChE (Ellman assay, mean ± SEM) was “millimolar range”.

For the compound `C[C@H](NC(=O)[C@@H]1CCCN1C(=O)CNC(=O)OCc1ccccc1)C(=O)O` [Compound 22, Cbz-Gly-Pro-Ala-OH] (Cbz-Gly-Pro-Ala-OH), the IC50 came to 0.3 ± 0.02 µM on BACE-1 and 0.1 ± 0.01 µM at Human AChE.

With `C=CCOC(=O)[C@H](C)NC(=O)[C@@H]1CCCN1C(=O)CNC(=O)OCc1ccccc1` [Compound 23, Cbz-Gly-Pro-Ala-O-Allyl] (Cbz-Gly-Pro-Ala-OAll), the results for the IC50 against BACE-1 and on Human AChE were 1 ± 0.2 µM and 0.8 ± 0.1 µM, respectively.

Turning to `CC(C)=CCOC(=O)[C@H](C)NC(=O)[C@@H]1CCCN1C(=O)CNC(=O)OCc1ccccc1` [Compound 24, Cbz-Gly-Pro-Ala-O-dimethylallyl], the IC50 against BACE-1 turned out to be 20 ± 2.3 µM; against Human AChE, 0.6 ± 0.03 µM.

As to `C[C@H](NC(=O)[C@@H]1CCCN1C(=O)CNC(=O)OCc1ccccc1)C(=O)OC/C=C/c1ccccc1` [Compound 25, Cbz-Gly-Pro-Ala-O-cinnamyl], in data set [1], the “time taken by the animals … (5th day)” value is given as 20 s; the “time taken by the animals to reach the platform, after treatment with the test compound/donepezil (11th day)” value came out at 15 s; the “time taken by the animals … (14th day)” value is listed as 15 s. In the data set “PAMPA-BBB permeability”, the Papp at 5 h, 200 μM was found to be 17.8 ×10⁻⁶ cm/s. For the same compound, the IC50 against BACE-1 is 0.02 ± 0.001 µM. Further, the “change in the concentration in plasma” value in “Plasma stability assay” (50 μM in plasma pH 7–8, 37 °C, 12 h incubation) is about 10%. The “effect of plasma on the half-life time” value in the data set “Plasma stability assay” (50 μM in plasma, 37 °C) was “no remarkable effect on the half-life time”. For the same compound, the inhibition at 10 µM at Aβ1–42 is over 50%. For the same compound, the IC50 against Human AChE stood at 1 ± 0.2 µM.

As to `CC(C)=CCC/C(C)=C/COC(=O)[C@H](C)NC(=O)[C@@H]1CCCN1C(=O)CNC(=O)OCc1ccccc1` [Compound 26, Cbz-Gly-Pro-Ala-O-Geranyl], in data set [1], the “time taken by the animals … (5th day)” value turned out to be 7 s; the “time taken by the animals to reach the platform, after treatment with the test compound/donepezil (11th day)” value was found to be 39 s; the “time taken by the animals … (14th day)” value was 45 s. In addition, it took 0.1 ± 0.01 µM to reach half-maximal inhibition against BACE-1 (IC50). The inhibition at 10 µM on Aβ1–42 was 31.8 ± 3.2%. Also, the IC50 against Human AChE is 0.7 ± 0.1 µM.

For the compound `COC(=O)[C@H](C)NC(=O)[C@@H]1CCCN1C(=O)CN` [Compound 30, NH2-Gly-Pro-Ala-OMe] (H-Gly-Pro-Ala-OMe), in data set [1], the “time taken by the animals … (5th day)” value was found to be 20 s; the “time taken by the animals to reach the platform, after treatment with the test compound/donepezil (11th day)” value was determined as 12 s; the “time taken by the animals … (14th day)” value is reported as 65 s. For the same compound, the Papp at 5 h, 200 μM in “PAMPA-BBB permeability” worked out at 8.98 ×10⁻⁶ cm/s. On BACE-1, this compound had an IC50 of 0.02 ± 0.001 µM. Besides, on Aβ1–42, the inhibition at 10 µM was found to be 33.7 ± 4.2%. For the same compound, at Human AChE, the IC50 turned out to be 2 ± 1.1 µM.

`C(=C\n1nncc1COc1ccc2ccccc2c1-c1c(OCc2cnnn2/C=C/Cc2ccccc2)ccc2ccccc12)/Cc1ccccc1` [Compound 33, 2,2′-Bis((1-((E)-3-phenylprop-1-en-1-yl)-1H-1,2,3-triazol-5-yl)methoxy)-1,1′-binaphthalene]: the Papp at 5 h, 200 μM in the data set “PAMPA-BBB permeability” stood at 1.59 ×10⁻⁶ cm/s. The values for the IC50 against BACE-1 and against Human AChE were 1 ± 0.1 µM and 7 ± 1.4 µM, respectively. Further, the inhibition at 10 µM at Aβ1–42 stood at 43.2 ± 4.7%.

Turning to `Cn1c(=O)c2c(ncn2C)n(C)c1=O` [caffeine, reference compound], the “Pe (PAMPA-BBB)” value in “PAMPA-BBB permeability” (200 μM in PBS pH 7.4, 5 h, room temperature) is on record as 10.9 × 10^–6 cm s^–1. Moreover, in the data set “PAMPA-BBB permeability”, the Papp at 5 h, 200 μM stood at 10.9 ×10⁻⁶ cm/s.

On to `COc1cc2c(cc1OC)C(=O)C(CC1CCN(Cc3ccccc3)CC1)C2` (stereo not shown) [donepezil, reference compound], for which, in data set [1], the “time taken by the animals … (5th day)” value came to 15 s; the “time taken by the animals to reach the platform, after treatment with the test compound/donepezil (11th day)” value is listed as 17 s; the “time taken by the animals … (14th day)” value worked out at 10 s. For the same compound, the inhibition at 10 µM at Aβ1–42 worked out at 10.9 ± 1.4%.

`CCn1cc(C(=O)O)c(=O)c2cc(F)c(N3CCNCC3)cc21` [norfloxacin, reference compound]: the Papp at 5 h, 200 μM in the data set “PAMPA-BBB permeability” stood at 1.73 ×10⁻⁶ cm/s.

`CN1[C@@H]2C[C@@H](OC(=O)[C@H](CO)c3ccccc3)C[C@H]1[C@@H]1O[C@@H]12` [scopolamine, reference compound]: the “time taken by the animals … (14th day)” value in data set [1] came to 77 s.
